Assay results: paper PMC4300089, “Structure-Guided Design of Selective Epac1 and Epac2 Agonists” (PLoS Biology, 2015)
Like-named read-outs stand apart in the source and are kept apart here.

Legend:
Epac2^Δ280 = molecular target: T1, Epac2^Δ280 (Mus musculus, UniProt Q9EQZ6); assay: Epac activation assay (Rap1B•mGDP fluorescence nucleotide exchange), Epac2^Δ280; format: biochemical; conditions: Epac2^Δ280; for Rel. kmax: maximal activity relative to cAMP
T1 construct: made in house
T1 sequence (Q9EQZ6 281-993 isoform Q9EQZ6-3): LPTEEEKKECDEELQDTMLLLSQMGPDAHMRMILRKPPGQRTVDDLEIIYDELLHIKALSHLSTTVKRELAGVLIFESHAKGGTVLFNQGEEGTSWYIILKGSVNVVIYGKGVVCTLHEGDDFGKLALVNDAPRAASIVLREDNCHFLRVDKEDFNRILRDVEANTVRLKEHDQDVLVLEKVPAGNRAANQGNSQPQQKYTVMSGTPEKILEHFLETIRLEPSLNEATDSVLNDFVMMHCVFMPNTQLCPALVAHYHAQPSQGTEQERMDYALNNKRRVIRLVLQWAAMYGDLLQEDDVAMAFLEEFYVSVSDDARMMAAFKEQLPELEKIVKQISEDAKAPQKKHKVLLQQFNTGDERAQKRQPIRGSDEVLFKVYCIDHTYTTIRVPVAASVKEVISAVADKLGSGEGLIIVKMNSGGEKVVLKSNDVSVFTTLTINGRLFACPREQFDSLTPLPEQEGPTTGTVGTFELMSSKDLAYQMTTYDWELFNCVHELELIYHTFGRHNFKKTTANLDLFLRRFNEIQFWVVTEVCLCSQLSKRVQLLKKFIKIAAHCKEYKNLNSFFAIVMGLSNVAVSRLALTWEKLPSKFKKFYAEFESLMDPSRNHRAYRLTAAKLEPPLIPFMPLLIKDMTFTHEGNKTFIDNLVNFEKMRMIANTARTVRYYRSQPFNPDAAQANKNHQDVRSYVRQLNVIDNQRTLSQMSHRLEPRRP
Experimental: (§1) Murine Epac2 was used as all previous structural studies were performed with it.
(§2) The activity of Epac was determined by a fluorescence assay. […] The fluorescence intensity of Rap1B•mGDP is approximately twice that of free mGDP, and thus, nucleotide exchange can be observed as a decay in fluorescence upon the addition of excess unlabeled GDP.

Epac1 [1] = molecular target: T2, Epac1 (Homo sapiens, UniProt O95398); assay: Epac activation assay, Epac1; format: biochemical; conditions: Epac1; for Rel. kmax: maximal activity relative to cAMP
T2 construct: made in house
T2 sequence (O95398 150-881 isoform O95398-3): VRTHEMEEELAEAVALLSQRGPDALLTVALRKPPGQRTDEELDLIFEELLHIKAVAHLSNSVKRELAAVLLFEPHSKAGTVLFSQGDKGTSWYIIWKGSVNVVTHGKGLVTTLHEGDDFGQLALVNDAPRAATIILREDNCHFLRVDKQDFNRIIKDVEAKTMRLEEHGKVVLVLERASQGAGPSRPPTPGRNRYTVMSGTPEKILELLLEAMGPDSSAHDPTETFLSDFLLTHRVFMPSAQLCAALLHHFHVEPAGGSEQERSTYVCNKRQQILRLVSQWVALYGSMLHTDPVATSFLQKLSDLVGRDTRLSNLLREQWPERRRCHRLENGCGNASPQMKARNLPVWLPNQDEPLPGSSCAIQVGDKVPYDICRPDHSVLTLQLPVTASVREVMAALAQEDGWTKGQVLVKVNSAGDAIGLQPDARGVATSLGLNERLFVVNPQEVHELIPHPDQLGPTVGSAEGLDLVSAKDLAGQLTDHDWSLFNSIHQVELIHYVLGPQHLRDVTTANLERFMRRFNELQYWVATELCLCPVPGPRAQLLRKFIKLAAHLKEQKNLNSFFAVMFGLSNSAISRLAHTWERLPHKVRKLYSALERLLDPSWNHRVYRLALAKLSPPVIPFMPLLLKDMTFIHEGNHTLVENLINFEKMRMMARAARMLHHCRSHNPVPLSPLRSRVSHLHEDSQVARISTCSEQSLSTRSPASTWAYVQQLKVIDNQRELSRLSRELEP

Epac2^fl = molecular target: T3, Epac2^fl (Mus musculus, UniProt Q9EQZ6); assay: Epac activation assay, full length Epac2; format: biochemical; parameters: made in house; conditions: Epac2^fl
T3 sequence (Q9EQZ6 1-993 isoform Q9EQZ6-3): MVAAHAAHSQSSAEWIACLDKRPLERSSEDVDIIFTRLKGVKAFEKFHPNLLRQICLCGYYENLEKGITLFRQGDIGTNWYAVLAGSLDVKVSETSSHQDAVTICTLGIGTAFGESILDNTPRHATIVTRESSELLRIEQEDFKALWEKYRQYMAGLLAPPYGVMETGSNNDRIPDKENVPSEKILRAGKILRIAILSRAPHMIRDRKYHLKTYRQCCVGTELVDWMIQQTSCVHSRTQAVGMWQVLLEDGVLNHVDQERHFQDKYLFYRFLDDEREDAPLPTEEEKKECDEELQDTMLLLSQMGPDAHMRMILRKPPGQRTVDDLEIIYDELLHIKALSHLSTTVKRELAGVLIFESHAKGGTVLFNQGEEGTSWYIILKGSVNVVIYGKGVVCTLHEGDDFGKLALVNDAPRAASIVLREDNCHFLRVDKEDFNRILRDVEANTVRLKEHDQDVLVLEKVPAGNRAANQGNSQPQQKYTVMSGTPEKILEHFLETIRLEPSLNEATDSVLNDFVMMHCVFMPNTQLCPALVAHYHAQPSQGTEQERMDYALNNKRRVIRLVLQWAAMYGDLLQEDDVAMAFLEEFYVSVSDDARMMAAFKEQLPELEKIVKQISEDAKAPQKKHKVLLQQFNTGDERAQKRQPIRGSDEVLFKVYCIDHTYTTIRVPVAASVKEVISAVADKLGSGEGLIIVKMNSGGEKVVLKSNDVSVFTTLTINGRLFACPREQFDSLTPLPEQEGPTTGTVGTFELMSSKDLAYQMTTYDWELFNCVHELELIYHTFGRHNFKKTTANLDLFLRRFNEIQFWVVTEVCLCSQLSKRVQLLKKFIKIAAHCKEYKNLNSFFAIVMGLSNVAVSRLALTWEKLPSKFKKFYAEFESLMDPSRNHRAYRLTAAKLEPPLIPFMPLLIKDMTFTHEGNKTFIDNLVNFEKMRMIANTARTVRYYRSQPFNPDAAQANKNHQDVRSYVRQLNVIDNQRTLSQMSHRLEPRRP
Experimental: as §1, §2

Epac1 [2] = molecular target: T2, Epac1; parameters: method as in PMID 12888551; conditions: footnote c, see also ref 13; cited from earlier work

Q: Which results are given for `CSc1nc2c(N)ncnc2n1[C@@H]1O[C@@H]2COP(=O)(O)O[C@H]2[C@H]1SC` [D-002, 8,2′-DMeT-cAMP]?
A: AC50 (Epac2^Δ280): 2.6 µM; Rel. kmax (Epac2^Δ280): 2.0; AC50 (Epac1 [1]): 17 µM; Rel. kmax (Epac1 [1]): 1.4; AC50 (Epac2^fl): 110 µM; Rel. kmax (Epac2^fl; maximal activity relative to cAMP): 2.4

Q: For `Nc1ncnc2c1ncn2[C@H]1C[C@@H]2OP(=O)(O)OC[C@H]2O1` [Z-001, 2′-dcAMP], which AC50 (Epac2^Δ280) is on record?
A: The AC50 was 70 µM.

Q: And the Rel. kmax (Epac2^Δ280)?
A: The Rel. kmax was 1.4.

Q: And the AC50 (Epac1 [2])?
A: The AC50 was > 1000 µM.

Q: What does the source list for `CNc1nc2c(N)ncnc2n1[C@@H]1O[C@@H]2COP(=O)(O)O[C@H]2[C@H]1O` [L-005, 8-MeA-cAMP]?
A: AC50 (Epac2^Δ280): 0.6 µM; Rel. kmax (Epac2^Δ280): 3.3; AC50 (Epac1 [2]): 19 µM; Rel. kmax (Epac1 [2]): 0.5^c

Q: For `Nc1ncnc2c1nc(NC1CCCCC1)n2[C@@H]1O[C@@H]2COP(=O)(O)O[C@H]2[C@H]1O` [L-013, 8-cHA-cAMP], which AC50 (Epac2^Δ280) is on record?
A: The AC50 was 4.7 µM.

Q: What about the Rel. kmax (Epac2^Δ280) of the same compound?
A: The Rel. kmax was 0.3.

Q: And the AC50 (Epac1 [1])?
A: The AC50 was 50 µM.

Q: What about the Rel. kmax (Epac1 [1]) of the same compound?
A: The Rel. kmax was 0.3.

Q: Which AC50 (Epac2^Δ280) does the source give for `CO[C@@H]1[C@@H]2OP(=O)(O)OC[C@H]2O[C@H]1n1c(Sc2ccc(O)cc2)nc2c(N)ncnc21` [D-008, 8-pOHPT-2′-O-Me-cAMP] here?
A: Its AC50 is 1.5 µM.

Q: And the Rel. kmax (Epac2^Δ280)?
A: Its Rel. kmax is 2.2.

Q: And the AC50 (Epac1 [1])?
A: Its AC50 is 1 µM.

Q: And the Rel. kmax (Epac1 [1])?
A: The Rel. kmax was 3.1.

Q: Which AC50 (Epac2^Δ280) does the source give for `COc1ccc(Sc2nc3c(N)ncnc3n2[C@@H]2O[C@@H]3COP(=O)(O)OC3[C@@H]2OC)cc1` (stereo partly drawn) [D-009, 8-pMeOPT-2′-O-Me-cAMP] here?
A: Its AC50 is 2.8 µM.

Q: And the Rel. kmax (Epac2^Δ280)?
A: Its Rel. kmax is 0.5.

Q: What about the AC50 (Epac1 [1]) of the same compound?
A: The AC50 was 2.3 µM.

Q: What about the Rel. kmax (Epac1 [1]) of the same compound?
A: Its Rel. kmax is 2.7.

Q: For `Nc1ncnc2c1nc(Br)n2[C@@H]1O[C@@H]2COP(=O)(O)O[C@H]2[C@H]1F` [D-004, 8-Br-2′-F-cAMP], which AC50 (Epac2^Δ280) is on record?
A: The AC50 was 14 µM.

Q: And the Rel. kmax (Epac2^Δ280)?
A: The Rel. kmax was 1.5.

Q: And the AC50 (Epac1 [1])?
A: The AC50 was 100 µM.

Q: And the Rel. kmax (Epac1 [1])?
A: Its Rel. kmax is 0.4.

Q: Which results are given for `Nc1ncnc2c1ncn2[C@@H]1O[C@@H]2COP(=O)(O)O[C@H]2[C@H]1N` [Z-003, 2′-NH2-cAMP]?
A: AC50 (Epac2^Δ280): 9 µM; Rel. kmax (Epac2^Δ280): 0.9; AC50 (Epac1 [1]): 80 µM; Rel. kmax (Epac1 [1]): 0.8

Q: What does the source list for `Nc1ncnc2c1nc(Br)n2[C@@H]1O[C@@H]2CO[P@](O)(=S)O[C@H]2[C@H]1Cl` [S-013, Sp-8-Br-2′-Cl-cAMPS]?
A: AC50 (Epac2^Δ280): 8 µM; Rel. kmax (Epac2^Δ280): 0.5; AC50 (Epac1 [1]): 110 µM; Rel. kmax (Epac1 [1]): 0.1

Q: With `CO[C@H]1C2OP(O)(=S)OC[C@H]2O[C@H]1n1c(Br)nc2c(N)ncnc21` (stereo partly drawn) [S-014, Sp-8-Br-2′-O-Me-cAMPS] as the compound, how does the AC50 (Epac2^Δ280) read?
A: The AC50 was 13 µM.

Q: What about the Rel. kmax (Epac2^Δ280) of the same compound?
A: The Rel. kmax was 2.0.

Q: What about the AC50 (Epac2^fl) of the same compound?
A: Its AC50 is > 80 µM.

Q: With `Nc1ncnc2c1nc(Cl)n2[C@@H]1O[C@@H]2COP(=O)(O)O[C@H]2[C@H]1O` [L-001, 8-Cl-cAMP] as the compound, how does the AC50 (Epac2^Δ280) read?
A: The AC50 was 0.3 µM.

Q: What about the Rel. kmax (Epac2^Δ280) of the same compound?
A: Its Rel. kmax is 0.8.

Q: And the AC50 (Epac1 [2])?
A: The AC50 was 6.9 µM.

Q: And the Rel. kmax (Epac1 [2])?
A: The Rel. kmax was 0.5^c.

Q: For `Nc1ncnc2c1[nH]c(=O)n2C1OC2COP(=O)(O)OC2C1O` [L-021, 8-OH-cAMP], which AC50 (Epac2^Δ280) is on record?
A: Its AC50 is 0.6 µM.

Q: What about the Rel. kmax (Epac2^Δ280) of the same compound?
A: The Rel. kmax was 0.4.

Q: And the AC50 (Epac1 [2])?
A: The AC50 was 26 µM.

Q: And the Rel. kmax (Epac1 [2])?
A: Its Rel. kmax is 0.5^c.

Q: Which AC50 (Epac2^Δ280) does the source give for `CO[C@H]1C2OP(=O)(O)OC[C@H]2O[C@H]1n1cnc2c(N)ncnc21` (stereo partly drawn) [Z-004, 2′-O-Me-cAMP] here?
A: The AC50 was 32 µM.

Q: And the Rel. kmax (Epac2^Δ280)?
A: The Rel. kmax was 1.0.

Q: What about the AC50 (Epac1 [2]) of the same compound?
A: Its AC50 is > 100 µM.
